Data taken from EP3511005A1, “COMPOUNDS FOR USE IN TREATING HUTCHINSON-GILFORD PROGERIA SYNDROME” (Technische Universität München, priority 2018, dated 2019).
Several values for one entry are separate records, joined by “and”; a condition that tells them apart may be missing. Identical values can stand only once.

Tests used:
HGPS fibroblasts [1] = experiment: 20S proteasome activity measurement in HGPS fibroblasts; type: cell-based, human; conditions: 0.25-1 µM, 4 or 9 days
Method: This assay uses a specific 20S substrate (SUC-LLVY-AMC) which, upon cleavage by the active enzyme, generates a fluorescent product that can be detected.
Next, the plate was again centrifuged in the same conditions, the supernatant was aspirated, and 100 µl of 20S Proteasome Lysis Buffer was added to each well. Then, the plate was incubated with gentle shaking for 30 min at room temperature to allow cell lysis and it was centrifuged at 1300 rpm for 7 min. Following centrifugation, 90 µl of the supernatant from each well was transferred to a new empty well together with 10 µl of substrate solution. The substrate solution was prepared by adding 25 µl of 20S Proteasome Substrate (SUC-LLVY-AMC) to 1 ml of 20S Proteasome Assay Buffer. […] Considering that the proteasomal activity in mock-treated control fibroblasts is 100%, the proteasomal activity relative to mock-treated control fibroblasts was calculated for each condition.
A Jurkat cell lysate supernatant which contains a high level of 20S activity was used as positive control (20S Proteasome Positive Control) and 20S Proteasome Assay Buffer was used as negative blank control.

[2] = system: mouse fibroblasts from a progerin mouse model; experiment: Autophagy measurement in mouse fibroblasts (monodansylcadaverine staining); conditions: 3 µM
Method: First, control and HGPS fibroblasts were harvested in the above mentioned conditions and, following trypsinization, the number of cells was counted with a CASY® Cell Counter (Roche). Afterwards, fibroblasts from each condition were seeded in triplicate in a 96 well plate with 32.000 cells/well in 100 µl of culture media with the appropriate drug concentration, and the plate was incubated at 37 °C for 8 h. After centrifuging the 96 well plate at 1200 rpm for 5 min, the culture media was aspirated from each well and 100 µl of staining solution was added. The staining solution was prepared by diluting Cell-Based Monodansylcadaverine 1:1000 in Cell Based Assay Buffer. The assay buffer was prepared by dissolving a Cell-Based Assay Buffer Tablet in 100 ml of distilled water. […] Lastly, after removing the supernatant, 100 µl of Cell-Based Assay Buffer was added to each well and the autophagic vacuole staining intensity was immediately detected in a FLUOstar Omega Microplate Reader (Omega BMG Labtech) using an excitation wavelength of 355 nm and an emission wavelength of 520 nm.

[3] = system: control and progerin mouse cells; experiment: Cell growth (proliferation) of mouse fibroblasts; type: cell-based; conditions: 3 µM
Method: First, control and HGPS fibroblasts were cultured at 37 °C and 5% CO2 in culture media without drug. […] Then, each type of fibroblasts was seeded in triplicate with 150.000 cells/dish at the four different conditions. After 4 days and 9 days, the number of cells harvested in each condition was counted, also using a CASY® Cell Counter (Roche). The cumulative population doubling was determined using equation 5. Cumulative Population Doubling = 3,32 × log((cells harvested)/(cells seeded)) [formula]

[4] = system: mouse fibroblasts from a progerin mouse model; experiment: Western blot analysis of progerin levels in mouse fibroblasts from progerin mouse model; type: cell-based; conditions: mouse progerin fibroblasts (LMNA G609G/G609G), 3 µM
Method: (§1) A similar quantitative Western Blot analysis was carried out in wild-type mouse fibroblasts compared to fibroblasts obtained from the progerin mouse model (see Figure 17).
Subsequently, the cell suspension was centrifuged for 5 min at 1200 rpm, the supernatant was aspirated, and the cells were washed with 4.5 ml PBS (Sigma). These steps were performed thrice in order to assure that all culture media is removed. Then, the cells were transferred to Eppendorf tubes with 1 ml PBS (Sigma) and the tubes were centrifuged for 5 min at 1200 rpm. After fully aspirating PBS, the cell pellets were obtained. Following the generation of cell pellets, the next action was the preparation of the gel electrophoresis loading samples. The first step was the addition of 100 µl per 10^7 cells of Laemmli Buffer-inhibitor mix to each Eppendorf tube to lyse the fibroblasts and denature the proteins of the lysate. […]
(§2) The total protein concentration of each gel electrophoresis loading sample was determined by using a series of dilutions of known concentrations of bovine serum albumin (BSA) to obtain a standard curve. […] The total protein concentration of each gel electrophoresis loading sample was calculated based on this standard curve. […]

HGPS fibroblasts [5] = experiment: Intracellular ROS measurement in HGPS fibroblasts; type: cell-based, human; conditions: 0.25-1 µM, 4 or 9 days
From the text: This assay uses 2',7'-dichlorofluorescein diacetate (DCFDA), a cell permeant reagent that after entering the cell is deacetylated by cellular esterases to a non-fluorescent compound that is later oxidized by ROS into 2',7'-dichlorofluorescein (DCF). DCF is highly fluorescent and can be detected by fluorescence spectroscopy.
First, control and HGPS fibroblasts were harvested in the above mentioned conditions and, following trypsinization, the number of cells was counted with a CASY® Cell Counter (Roche). The fibroblasts from each condition were seeded in triplicate in a 96 well plate with 32.000 cells/well in 100 µl of culture media with the appropriate drug concentration, and the plate was incubated at 37 °C for 8 h. After the incubation, the culture media was aspirated, 100 µl of 1 x Buffer were added to each well, and the plate was centrifuged at 1200 rpm for 5 min. […] Following the addition of 1x Buffer, fluorescence was measured immediately in a FLUOstar Omega Microplate Reader (Omega BMG Labtech) using an excitation wavelength of 485 nm and an emission wavelength of 535 nm. Considering that the ROS level in mock-treated control fibroblasts is 100%, the ROS levels relative to mock-treated control fibroblasts were calculated for each condition. […]

HGPS fibroblasts [6] = experiment: Western blot analysis of progerin and lamin A/C levels in HGPS fibroblasts; type: cell-based, human; conditions: HGPS cells
Method: Primary dermal fibroblasts from subjects with HGPS were obtained from the Progeria Research Foundation. Two different fibroblasts derived from HGPS patients carrying the LMNA mutation G608G were used: HGADFN003 (person) and HGADFN127 (person). Control dermal fibroblasts were obtained from the Coriell Institute for Medical Research (Camden, NJ). The following cell lines were used: GMO1651C and GMO3349C. All cells were maintained at -80 °C in 90% fetal bovine serum (FBS) and 10% dimethyl sulfoxide (DMSO). The Institutional Review Board of the Technische Universität München (TUM) approved the use of human cells established from skin biopsies from patients with HGPS and unaffected individuals in this study.
Control and HGPS fibroblasts were cultured at 37 °C and 5% CO2 in Dulbecco's Modified Eagle Media (DMEM) (Gibco by life technologies) containing 15% FBS (Gibco by life technologies), 1% L-glutamine (Gibco by life technologies), 1% penicillin/streptomycin (Gibco by life technologies), and 2 ml of gentamycin (Gibco by life technologies). Mock-treated and baricitinib-treated fibroblasts were cultured in parallel. […] Three times a week the cells were re-fed with new culture media.
as §1
Subsequently, the cell suspension was centrifuged for 5 min at 1200 rpm, the supernatant was aspirated, and the cells were washed with 4.5 ml PBS (Sigma). These steps were performed thrice in order to assure that all culture media is removed. Then, the cells were transferred to Eppendorf tubes with 1 ml PBS (Sigma) and the tubes were centrifuged for 5 min at 1200 rpm. […]
as §2

HGPS fibroblasts [7] = experiment: Intracellular ATP measurement in HGPS fibroblasts; type: cell-based, human; conditions: 0.25-1 µM, 4 or 9 days
Method: This assay relies in the properties of a proprietary thermostable luciferase which generates a stable luminescent signal that is proportional to the amount of ATP in the cells by catalyzing the mono-oxygenation of luciferin in the presence of Mg^2+, ATP and molecular oxygen.
This reagent is obtained by transferring 10 ml of CellTiter-Glo® Buffer into an amber bottle containing CellTiter-Glo® Substrate and then mixing it gently by vortexing. The plate was then mixed for 2 min in an orbital shaker to induce cell lysis and following that, it was incubated at room temperature for 10 min to stabilize the luminescent signal. Finally, luminescence was recorded in a FLUOstar Omega Microplate Reader (Omega BMG Labtech). Considering that the ATP level in mock-treated control fibroblasts is 100%, the ATP levels relative to mock-treated control fibroblasts were calculated for each condition.
Culture media without cells was used as a blank negative control to assure there is no interference with the luciferase reaction.

HGPS fibroblasts [8] = experiment: Autophagy measurement in HGPS fibroblasts; type: cell-based, human; conditions: 0.25-1 µM, 4 or 9 days
Method: This assay uses monodansylcadaverine (MDC), a fluorescent compound that is incorporated into multilamellar bodies by both an ion trapping mechanism and the interaction with membrane lipids, as a probe for the detection of autophagic vacuoles in cells.
The staining solution was prepared by diluting Cell-Based Monodansylcadaverine 1:1000 in Cell Based Assay Buffer. The assay buffer was prepared by dissolving a Cell-Based Assay Buffer Tablet in 100 ml of distilled water. The plate was then incubated at 37 °C for 10 min and centrifuged for 5 min at 1200 rpm. Next, the supernatant was removed, 100 µl of Cell-Based Assay Buffer was added to each well and the plate was again centrifuged in the same conditions. […] Considering that the autophagy level in mock-treated control fibroblasts is 100%, the level of autophagy relative to mock-treated control fibroblasts for each condition was determined (see Figure 5).
Cell-Based Tamoxifen (100 mM), a known inducer of autophagy, was used as a positive control. This compound was initially added to a control culture diluted 1:50.000 into the culture media. Cell Based Assay Buffer was used as a negative blank control.

**Q.** With CCS(=O)(=O)N1CC(CC#N)(n2cc(-c3ncnc4[nH]ccc34)cn2)C1 [baricitinib] as the molecule, how does the proteasome activity (HGPS fibroblasts [1]) read?
**A.** increase

**Q.** What about the levels of autophagy ([2]; both control and progerin mouse fibroblasts) of the same molecule?
**A.** increases

**Q.** What about the “levels of autophagy increased” value ([2]; progerin mouse fibroblast relative to mock-treated control cells) of the same molecule?
**A.** 39.9%

**Q.** And the cell growth [3]?
**A.** ameliorate cell growth

**Q.** And the “levels of progerin decrease” value ([4]; day 4)?
**A.** 18%

**Q.** What about the “levels of progerin decrease” value ([4]; day 9) of the same molecule?
**A.** 35% and 35.6%

**Q.** What about the ROS levels (HGPS fibroblasts [5]) of the same molecule?
**A.** decrease

**Q.** What about the “reduction of levels of progerin” value (HGPS fibroblasts [6]; 4 days treatment with 1 µM, anti-progerin and anti-lamin A/C antibodies) of the same molecule?
**A.** 15%

**Q.** What about the progerin levels decreased (HGPS fibroblasts [6]; 9 days treatment with 1 µM) of the same molecule?
**A.** 33%

**Q.** What about the “lamin A and lamin C levels” value (HGPS fibroblasts [6]; long-term treatment) of the same molecule?
**A.** remained constant

**Q.** And the ATP levels (HGPS fibroblasts [7])?
**A.** increase

**Q.** What about the autophagy activity (HGPS fibroblasts [8]) of the same molecule?
**A.** increase
